What all share (type): cell-based
In assay [1] the target is T1, OsTIR1 (Oryza sativa subsp. japonica, UniProt P93830+Q7XVM8, Q7XVM8:F74G).
T1 construct: gene Os04g0395600; with mAID degron (Arabidopsis IAA17); SCF (Skp1-Cul1)
The assay is described as follows: mAID-EGFP-NLS reporter degradation dose response in HCT116 cells (DC50).

Assay [2] has as its target T2, OsTIR1 (Oryza sativa subsp. japonica, UniProt P93830+Q7XVM8).
T2 construct: gene Os04g0395600; with mAID degron (Arabidopsis IAA17); SCF (Skp1-Cul1)
The assay is described as above.

Assay [3] deals with T3, OsTIR1 (Oryza sativa, UniProt Q7XVM8).
T3 construct: gene Os04g0395600
T3 sequence (Q7XVM8 1-575): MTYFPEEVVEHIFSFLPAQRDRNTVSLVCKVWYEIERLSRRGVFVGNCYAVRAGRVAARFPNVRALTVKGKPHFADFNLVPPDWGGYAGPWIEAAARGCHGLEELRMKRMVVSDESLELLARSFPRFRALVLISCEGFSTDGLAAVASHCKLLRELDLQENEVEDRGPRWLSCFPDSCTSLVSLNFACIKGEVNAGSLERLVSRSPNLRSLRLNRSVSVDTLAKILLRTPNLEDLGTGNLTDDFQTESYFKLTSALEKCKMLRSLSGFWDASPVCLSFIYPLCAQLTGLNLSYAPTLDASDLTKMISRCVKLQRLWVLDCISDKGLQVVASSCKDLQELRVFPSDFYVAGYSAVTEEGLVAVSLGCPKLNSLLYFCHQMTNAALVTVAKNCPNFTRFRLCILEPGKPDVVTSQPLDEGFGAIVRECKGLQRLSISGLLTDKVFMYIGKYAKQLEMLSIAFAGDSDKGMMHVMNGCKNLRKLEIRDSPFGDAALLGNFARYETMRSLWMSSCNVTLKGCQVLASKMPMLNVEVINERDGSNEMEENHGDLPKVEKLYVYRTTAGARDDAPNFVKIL
Kind of assay: OsTIR1(WT) level in HCT116 cells raised by the inhibitor (suppressed autodegradation).

This is an account of results in PMC7659001, “The auxin-inducible degron 2 technology provides sharp degradation control in yeast, mammalian cells, and mice” (Nature Communications, 2020).

What is called DC50 is the midpoint of the concentration-degradation curve. Read a high DC50 as a less potent degrader.

T2 sequence (P93830 whole entry, one chain of several): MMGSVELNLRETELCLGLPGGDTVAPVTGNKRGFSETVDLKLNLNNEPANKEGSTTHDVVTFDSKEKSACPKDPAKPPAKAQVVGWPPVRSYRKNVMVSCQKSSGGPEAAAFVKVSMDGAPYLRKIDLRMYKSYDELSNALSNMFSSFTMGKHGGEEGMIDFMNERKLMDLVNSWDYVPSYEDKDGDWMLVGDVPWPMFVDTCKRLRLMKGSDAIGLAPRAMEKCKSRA
T1 sequence (Q7XVM8 whole entry F74G): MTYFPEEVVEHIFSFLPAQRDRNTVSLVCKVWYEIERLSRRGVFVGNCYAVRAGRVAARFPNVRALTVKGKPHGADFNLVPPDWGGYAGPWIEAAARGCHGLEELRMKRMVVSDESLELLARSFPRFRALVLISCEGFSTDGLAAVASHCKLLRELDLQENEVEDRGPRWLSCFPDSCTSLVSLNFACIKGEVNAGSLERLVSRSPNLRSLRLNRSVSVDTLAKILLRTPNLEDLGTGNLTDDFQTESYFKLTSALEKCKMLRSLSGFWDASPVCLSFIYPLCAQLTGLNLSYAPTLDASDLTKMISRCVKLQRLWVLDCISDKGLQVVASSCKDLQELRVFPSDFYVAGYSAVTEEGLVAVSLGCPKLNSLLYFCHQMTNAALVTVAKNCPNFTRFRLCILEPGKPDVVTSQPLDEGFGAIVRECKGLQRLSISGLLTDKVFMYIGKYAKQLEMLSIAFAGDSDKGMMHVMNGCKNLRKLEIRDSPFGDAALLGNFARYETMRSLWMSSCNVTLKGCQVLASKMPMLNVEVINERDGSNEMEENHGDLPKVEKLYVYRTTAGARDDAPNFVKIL
T1 sequence (P93830 65-132 limits assumed): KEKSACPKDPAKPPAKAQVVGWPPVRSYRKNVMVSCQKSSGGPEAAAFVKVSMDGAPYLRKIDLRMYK

The molecule `O=C(O)Cc1c[nH]c2ccc(-c3ccccc3)cc12` [5-Ph-IAA, 5-phenyl-indole-3-acetic acid] had a 50% degradation concentration (DC50) in assay [1] of 0.45 ± 0.01 nM.

In turn, `O=C(O)Cc1c[nH]c2ccccc12` [IAA, indole-3-acetic acid] returned a half-maximal degradation concentration (DC50) in assay [2] of 300 ± 30 nM.

Regarding `Cc1ccc(C(=O)CC(C(=O)O)c2c[nH]c3ccccc23)c(C)c1` (stereo not drawn) [auxinole], the “OsTIR1(WT) level in HCT116 cells raised by the inhibitor (suppressed autodegrada)” value in assay [3] is reported as “The expression level of OsTIR1(WT) was enhanced by the addition of an OsTIR1 inhibitor auxinole”.
